Reference: PMC7587962, “Evaluation of Cytotoxicity and α-Glucosidase Inhibitory Activity of Amide and Polyamino-Derivatives of Lupane Triterpenoids” (Molecules, 2020)
Like-named read-outs stand apart in the source and are kept apart here.

Assays:
K-562 = assay: NCI-60 SRB screen: leukemia K-562; type: cell-based, human; settings: K-562
A549/ATCC = assay: NCI-60 SRB screen: non-small cell lung cancer A549/ATCC; type: cell-based, human; settings: A549/ATCC
EKVX = assay: NCI-60 SRB screen: non-small cell lung cancer EKVX; type: cell-based, human
HOP-62 = assay: NCI-60 SRB screen: non-small cell lung cancer HOP-62; type: cell-based, human; settings: HOP-62
NCI-H226 = assay: NCI-60 SRB screen: non-small cell lung cancer NCI-H226; type: cell-based, human; settings: NCI-H226
NCI-H23 = assay: NCI-60 SRB screen: non-small cell lung cancer NCI-H23; type: cell-based, human; settings: NCI-H23
NCI-H322M = assay: NCI-60 SRB screen: non-small cell lung cancer NCI-H322M; type: cell-based, human
NCI-H522 = assay: NCI-60 SRB screen: non-small cell lung cancer NCI-H522; type: cell-based, human; settings: NCI-H522
HCC-2998 = assay: NCI-60 SRB screen: colon cancer HCC-2998; type: cell-based, human; settings: HCC-2998
HCT-15 = assay: NCI-60 SRB screen: colon cancer HCT-15; type: cell-based, human; settings: HCT-15
HT29 = assay: NCI-60 SRB screen: colon cancer HT29; type: cell-based; settings: Homo sapiens, HT29
KM12 = assay: NCI-60 SRB screen: colon cancer KM12; type: cell-based, human; settings: KM12
SW-620 = assay: NCI-60 SRB screen: colon cancer SW-620; type: cell-based; settings: Homo sapiens, 48 h, SW-620
SF-268 = assay: NCI-60 SRB screen: CNS cancer SF-268; type: cell-based, human; settings: SF-268
SF-539 = assay: NCI-60 SRB screen: CNS cancer SF-539; type: cell-based, human; settings: SF-539
SNB-19 = assay: NCI-60 SRB screen: CNS cancer SNB-19; type: cell-based, human; settings: SNB-19
MALME-3M = assay: NCI-60 SRB screen: melanoma MALME-3M; type: cell-based, human; settings: MALME-3M
SK-MEL-2 = assay: NCI-60 SRB screen: melanoma SK-MEL-2; type: cell-based, human; settings: SK-MEL-2
SK-MEL-28 = assay: NCI-60 SRB screen: melanoma SK-MEL-28; type: cell-based, human; settings: SK-MEL-28
OVCAR-4 = assay: NCI-60 SRB screen: ovarian cancer OVCAR-4; type: cell-based; settings: Homo sapiens; OVCAR-4; five concentrations, 48 h, SRB; read-out: GI50
SK-OV-3 = assay: NCI-60 SRB screen: ovarian cancer SK-OV-3; type: cell-based, human; settings: SK-OV-3
786-0 = assay: NCI-60 SRB screen: renal cancer 786-0; type: cell-based, human; settings: 786-0
CAKI-1 = assay: NCI-60 SRB screen: renal cancer CAKI-1; type: cell-based, human; settings: CAKI-1
UO-31 = assay: NCI-60 SRB screen: renal cancer UO-31; type: cell-based, human; settings: UO-31
PC-3 = assay: NCI-60 SRB screen: prostate cancer PC-3; type: cell-based, human; settings: PC-3
BT-549 = assay: NCI-60 SRB screen: breast cancer BT-549; type: cell-based, human; settings: BT-549
T-47D = assay: NCI-60 SRB screen: breast cancer T-47D; type: cell-based, human; settings: T-47D
MDA-MB-468 = assay: NCI-60 SRB screen: breast cancer MDA-MB-468; type: cell-based, human
[1] = test system: 60 human tumor cell lines; assay: cells
Leukemia subpanel = assay: NCI-60 screen, subpanel Leukemia
Melanoma subpanel = assay: NCI-60 screen, subpanel Melanoma
NSCL cancer subpanel = assay: NCI-60 screen, subpanel NSCL cancer
Renal Cancer subpanel = assay: NCI-60 screen, subpanel Renal Cancer
Ovarian Cancer subpanel = assay: NCI-60 screen, subpanel Ovarian Cancer
[2] = Homo sapiens, five concentrations, 48 h, SRB, read-out: GI50

## CC(=O)OCC12CCC(C(C)C(N)=O)C1C1CCC3C4(C)CCC(OC(C)=O)C(C)(C)C4CCC3(C)C1(C)CC2 [Compound 4, 3β,28-Diacetyloxy-(20R)-29-amino-29-oxolupane]
K-562; Homo sapiens, K562, five concentrations, 48 h, SRB, read-out: GI50
  GI50: 4.09 µM
K-562; single dose 10 µM
  Percentage Cell Growth: 3.10%
A549/ATCC; single dose 10 µM
  Percentage Cell Growth: 9.89%
A549/ATCC; [2]
  GI50: 3.97 µM
EKVX; [2]
  GI50: 9.28 µM
EKVX; single dose 10 µM
  Percentage Cell Growth: −25.21%
HOP-62; single dose 10 µM
  Percentage Cell Growth: −72.98%
HOP-62; [2]
  GI50: 1.1 µM
NCI-H226; [2]
  GI50: 7.28 µM
NCI-H226; single dose 10 µM
  Percentage Cell Growth: −58.51%
NCI-H23; [2]
  GI50: 9.42 µM
NCI-H23; single dose 10 µM
  Percentage Cell Growth: −40.35%
NCI-H322M; [2]
  GI50: 13 µM
NCI-H322M; single dose 10 µM
  Percentage Cell Growth: −78.19%
NCI-H522; [2]
  GI50: 4.94 µM
NCI-H522; single dose 10 µM
  Percentage Cell Growth: −61.13%
HCC-2998; single dose 10 µM
  Percentage Cell Growth: −68.10%
HCC-2998; [2]
  GI50: 10.4 µM
HCT-15; single dose 10 µM
  Percentage Cell Growth: −44.10%
HCT-15; [2]
  GI50: 4.04 µM
HT29; HT-29, 48 h, single dose 10 µM, read-out: Percentage Cell Growth
  activity at 10 µM: -77.7%
HT29; HT-29, five concentrations, 48 h, SRB, read-out: GI50
  GI50: 3.73 µM
KM12; [2]
  GI50: 3.86 µM
KM12; single dose 10 µM
  Percentage Cell Growth: −62.05%
SW-620; single dose 10 µM, read-out: Percentage Cell Growth
  activity at 10 µM: -55.1%
SW-620; five concentrations, SRB, read-out: GI50
  GI50: 7.7 µM
SF-268; [2]
  GI50: 6.95 µM
SF-268; single dose 10 µM
  Percentage Cell Growth: −61.04%
SF-539; [2]
  GI50: 5.52 µM
SF-539; single dose 10 µM
  Percentage Cell Growth: −83.91%
SNB-19; [2]
  GI50: 11.9 µM
SNB-19; single dose 10 µM
  Percentage Cell Growth: −39.95%
MALME-3M; [2]
  GI50: 10.5 µM
MALME-3M; single dose 10 µM
  Percentage Cell Growth: −88.97%
SK-MEL-2; [2]
  GI50: 10.8 µM
SK-MEL-2; single dose 10 µM
  Percentage Cell Growth: −77.63%
SK-MEL-28; [2]
  GI50: 12 µM
SK-MEL-28; single dose 10 µM
  Percentage Cell Growth: −73.19%
OVCAR-4
  GI50: 4.72 µM
SK-OV-3; [2]
  GI50: 13.4 µM
SK-OV-3; single dose 10 µM
  Percentage Cell Growth: −11.89%
786-0; single dose 10 µM
  Percentage Cell Growth: −73.99%
786-0; [2]
  GI50: 10.9 µM
CAKI-1; single dose 10 µM
  Percentage Cell Growth: −45.80%
CAKI-1; [2]
  GI50: 3.24 µM
UO-31; [2]
  GI50: 7.57 µM
UO-31; single dose 10 µM
  Percentage Cell Growth: −97.54%
PC-3; [2]
  GI50: 2.67 µM
PC-3; single dose 10 µM
  Percentage Cell Growth: −47.42%
BT-549; single dose 10 µM
  Percentage Cell Growth: −55.13%
BT-549; [2]
  GI50: 8.17 µM
T-47D; Homo sapiens, T47D, five concentrations, 48 h, SRB, read-out: GI50
  GI50: 2.91 µM
T-47D; single dose 10 µM
  Percentage Cell Growth: −8.82%
MDA-MB-468; [2]
  GI50: 3.96 µM
MDA-MB-468; single dose 10 µM
  Percentage Cell Growth: −40.40%
[1]; read-out: GI50 ranges against all panels of NCI60
  GI50: 1.1 to 54.4 µM
[1]; read-out: MID a, average sensitivity of all cell line (GI50-MID)
  GI50: 7.87 µM
Leukemia subpanel
  MID b, average sensitivity of all cell line of particular subpanel: 3.55 µM
  Selectivity, ratio MID a: MID b: 2.22
Melanoma subpanel
  MID b, average sensitivity of all cell line of particular subpanel: 7.80 µM
  Selectivity, ratio MID a: MID b: 1.01
NSCL cancer subpanel
  MID b, average sensitivity of all cell line of particular subpanel: 7.50 µM
  Selectivity, ratio MID a: MID b: 1.05
Renal Cancer subpanel
  MID b, average sensitivity of all cell line of particular subpanel: 8.12 µM
  Selectivity, ratio MID a: MID b: 0.97
Ovarian Cancer subpanel
  MID b, average sensitivity of all cell line of particular subpanel: 15.97 µM
  Selectivity, ratio MID a: MID b: 0.49
